Results reported in paper PMC7529893, “Structural basis for substrate recognition and chemical inhibition of oncogenic MAGE ubiquitin ligases” (Nature Communications, 2020).

molecular target: T1, MAGE-A11:PCF11 interaction (GST-MAGE-A11 and FAM-PCF11_4) (Homo sapiens, UniProt P43364); assay: TR-FRET primary / single point screen at 15 µM; assay type: binding; conditions: single point TR-FRET screening of 797 quinoline compounds against MAGE-A11:PCF11
T1 construct: GST-MAGE-A11 MHD (human MAGE-A11 MHD amino acid 218-429); made in house; host or cells: E. coli BL21(DE3)
T1 sequence (P43364 218-429): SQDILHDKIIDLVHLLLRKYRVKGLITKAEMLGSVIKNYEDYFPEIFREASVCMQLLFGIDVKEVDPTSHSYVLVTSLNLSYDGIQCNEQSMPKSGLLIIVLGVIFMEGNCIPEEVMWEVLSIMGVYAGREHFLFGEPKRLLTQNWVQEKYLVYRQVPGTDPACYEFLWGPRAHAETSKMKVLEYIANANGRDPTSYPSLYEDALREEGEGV
Outline: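 TR-FRET 520/490 nm emission ratio was read after 90 min at room temperature. Wells held 5 nM GST-MAGE-A11, 5 nM Tb-anti-GST, 200 nM FAM-PCF11_4 and 15 µM compound in Tris pH 7.5 buffer with MgCl2, BSA and DTT. %Inhibition was scaled to DMSO and minus-MAGE-A11 controls.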

Row | SMILES | percent inhibition (TR-FRET)
1 | CCCN(CCCNc1c2ccc(Cl)cc2nc2ccc(OC)cc12)Cc1ccc2ccccc2c1 [SJ000520953] | -129.124
2 | CCCCCCNCCCNc1c2ccc(Cl)cc2nc2ccc(OC)cc12 [SJ000361097] | -281.691
3 | COc1ccc2nc3cc(Cl)ccc3c(NCCCNCc3nccn3C)c2c1 [SJ000521006] | -279.905
4 | COc1ccc2nc3cc(Cl)ccc3c(NCCCNCc3cccnc3)c2c1 [SJ000520986] | -408.98
5 | COc1ccc2nc3cc(Cl)ccc3c(NCCCNCCC(C)SC)c2c1 (stereo not shown) [SJ000361098] | -514.546
6 | CCCCCN1CCC(Nc2ccnc3cc(Cl)ccc23)CC1 [SJ000523088] | 12.1652
7 | COc1ccc(N2CCN(c3c(S(=O)(=O)c4ccccc4)cnc4ccc(F)cc34)CC2)cc1 [SJ000083982] | -32.8549
8 | CCN1CCN(c2c(S(=O)(=O)c3ccc(C)c(C)c3)cnc3ccc(F)cc23)CC1 [SJ000247345] | 1.118
9 | CCOc1ccc2ncc(S(=O)(=O)c3ccc(C)cc3)c(N3CCN(CC)CC3)c2c1 [SJ000083964] | -5.899
10 | Cn1cc(CN(CCCCNc2ccnc3cc(Cl)ccc23)Cc2ccccc2)c2ccccc21 [SJ000520440] | -14.3502
11 | COc1cc2ncc(S(=O)(=O)c3ccc(C)cc3)c(N3CCN(C)CC3)c2cc1OC [SJ000083951] | 1.3128
12 | COc1ccccc1CN1CCC(Nc2ccnc3cc(Cl)ccc23)CC1 [SJ000523097] | 8.596
13 | COc1ccc(OC(F)(F)F)cc1CN(CCCCNc1ccnc2cc(Cl)ccc12)Cc1ccccc1 [SJ000520447] | 26.6585
14 | Cc1ccc(S(=O)(=O)c2cnc3ccccc3c2N2CCN(C)CC2)cc1 [SJ000247268] | -13.5889
15 | CCOc1ccc2ncc(C(=O)c3ccc(OC)cc3)c(N3CCN(CC)CC3)c2c1 [SJ000247243] | -9.084
16 | CCCN(CCCNc1c2ccc(Cl)cc2nc2ccc(OC)cc12)Cc1ccc(-c2ccccc2[N+](=O)[O-])o1 [SJ000523019] | -102.758

Row | SMILES | percent inhibition (TR-FRET)
17 | O=C(CN1CCN(C(=O)c2ccccc2)CC1)Nc1c2c(nc3ccccc13)N(c1cccc(Cl)c1)CC2 [SJ000111683] | -264.327
18 | COc1ccc2nc3cc(Cl)ccc3c(NCCCNCc3cc4ccccc4o3)c2c1 [SJ000520997] | -146.701
19 | COc1ccc2nc3cc(Cl)ccc3c(NCCCNCc3ccncc3)c2c1 [SJ000523023] | -127.586
20 | Oc1ccccc1CN1CCC(Nc2ccnc3cc(Cl)ccc23)CC1 [SJ000357529] | 22.1466
21 | COc1ccc2nc3cc(Cl)ccc3c(NCCCNCc3cccc4c3OCO4)c2c1 [SJ000520991] | -257.115
22 | CCOC(=O)c1cnc2c(C(F)(F)F)cccc2c1NCCN1CCOCC1 [SJ000281260] | 0.8341
23 | Cc1ccc(C)c(CN2CCC(Nc3ccnc4cc(Cl)ccc34)CC2)c1 [SJ000523106] | 18.6767
24 | CCOc1ccc2ncc(C(=O)c3ccccc3)c(N3CCN(CC)CC3)c2c1 [SJ000247283] | -0.2733
25 | Fc1cccc(CN(CCCCNc2ccnc3cc(Cl)ccc23)Cc2ccccc2)c1 [SJ000361199] | 28.3389
26 | COc1ccc2nc3cc(Cl)ccc3c(NCCCNCc3cccs3)c2c1 [SJ000361088] | -453.536
27 | COc1ccc2nc3cc(Cl)ccc3c(NCCCNCc3cccc(C#N)c3)c2c1 [SJ000523037] | -333.152
28 | CCCN(CCCNc1c2ccc(Cl)cc2nc2ccc(OC)cc12)CC(CC)CC [SJ000520939] | -160.284
29 | CCOC(=O)c1cnc2ccc(Br)cc2c1NCCN1CCOCC1 [SJ000031339] | -47.2425
30 | FC(F)(F)Oc1ccccc1CN(CCCCNc1ccnc2cc(Cl)ccc12)Cc1ccccc1 [SJ000520459] | 30.8594
31 | COc1ccc2ncc(S(=O)(=O)c3ccc(Cl)cc3)c(N3CCN(C)CC3)c2c1 [SJ000083952] | -3.658

same assay, conditions: single point TR-FRET screening of quinoline compounds against MAGE-A11:PCF11; 15 µM

Row | SMILES | percent inhibition (TR-FRET)
32 | CCCN(CCCNc1ccnc2cc(C(F)(F)F)ccc12)Cc1ccc(OC(F)(F)F)cc1 [SJ000520474] | 17.3802
33 | CCCN(CCCNc1ccnc2cc(C(F)(F)F)ccc12)Cc1ccc2[nH]ccc2c1 [SJ000575171] | 32.8899
34 | CCCN(CCCNc1ccnc2cc(C(F)(F)F)ccc12)Cc1ccc2c(c1)OCO2 [SJ000361270] | 5.623
35 | CCCN(CCCNc1ccnc2cc(C(F)(F)F)ccc12)CC(C)CC (stereo not shown) [SJ000523081] | 22.2827
36 | CCCN(CCCNc1ccnc2cc(Cl)ccc12)Cc1cc(F)cc(F)c1O [SJ000357597] | 15.9573
37 | COc1cccc(Oc2ccc3c(NCCCNCc4ccco4)ccnc3c2)c1 [SJ000311214] | 29.109
38 | CCOC(=O)c1cnc2c(C)cc(C)cc2c1NCCCN1CCOCC1 [SJ000173725] | 6.494
39 | CCCN(CCCNc1ccnc2cc(C(F)(F)F)ccc12)CCC(C)(C)C [SJ000520476] | 32.3298
40 | COc1cc(Cc2ccc3c(NCCCNCc4ccco4)ccnc3c2)cc(OC)c1 [SJ000311310] | 23.7879
41 | COc1ccc(CN(CCCNc2ccnc3cc(Cl)ccc23)Cc2ccccc2)cc1 [SJ000522720] | 11.7837
42 | CCCN(CCCNc1ccnc2cc(C(F)(F)F)ccc12)Cc1ccccc1F [SJ000361274] | 19.2187
43 | CCCN(CCCNc1ccnc2cc(Cl)ccc12)Cc1ccc[nH]1 [SJ000357445] | 10.3448
44 | CCCN(CCCNc1ccnc2cc(C(F)(F)F)ccc12)Cc1cccc(C(F)(F)F)c1 [SJ000520471] | 13.0224
45 | Cc1ccsc1CN(CCCNc1ccnc2cc(Cl)ccc12)Cc1ccccc1 [SJ000357440] | 10.905
46 | O=[N+]([O-])c1cccc(CN(CCCNc2ccnc3cc(Cl)ccc23)Cc2ccccc2)c1 [SJ000361178] | 17.0172
47 | CCCN(CCCNc1ccnc2cc(C(F)(F)F)ccc12)Cc1cc(F)cc(F)c1O [SJ000521012] | 14.997
48 | CCCN(CCCNc1c2ccc(Cl)cc2nc2ccc(OC)cc12)Cc1cccnc1Br [SJ000522977] | 0.2567
49 | CCCN(CCCNc1ccnc2cc(Cl)ccc12)Cc1nc(C)cs1 [SJ000522997] | 3.413
50 | CCCN(CCCNc1c2ccc(Cl)cc2nc2ccc(OC)cc12)Cc1ccccc1OC(F)(F)F [SJ000522961] | 22.6913
51 | c1coc(CNCCCNc2ccnc3cc(C4CCCCC4)ccc23)c1 [SJ000311262] | 32.9599

Row | SMILES | percent inhibition (TR-FRET)
52 | CCCN(CCCNc1ccnc2cc(C(F)(F)F)ccc12)Cc1cc(C)ccc1C [SJ000523082] | 21.738
53 | Clc1ccc2c(NCCCN(Cc3ccccc3)Cc3cccc4ccccc34)ccnc2c1 [SJ000361181] | 26.2256
54 | CCCN(CCCNc1ccnc2cc(C(F)(F)F)ccc12)Cc1cc(F)ccc1C [SJ000521014] | 20.6371
55 | CCCN(CCCNc1c2ccc(Cl)cc2nc2ccc(OC)cc12)Cc1ccncc1 [SJ000520918] | -1.797
56 | CCCN(CCCNc1c2ccc(Cl)cc2nc2ccc(OC)cc12)Cc1cc2ccccc2nc1Cl [SJ000522737] | -83.7446
57 | CCCN(CCCNc1c2ccc(Cl)cc2nc2ccc(OC)cc12)Cc1cc(OC(F)(F)F)ccc1OC [SJ000522984] | -36.7058
58 | CCCN(CCCNc1c2ccc(Cl)cc2nc2ccc(OC)cc12)Cc1nc(C)cs1 [SJ000522966] | -82.146
59 | CC(C)(C)CCNCCCNc1ccnc2cc(C(F)(F)F)ccc12 [SJ000521053] | 27.3587
60 | CCCN(CCCNc1ccnc2cc(C(F)(F)F)ccc12)Cc1cccnc1Br [SJ000575180] | 5.164
61 | CCCN(CCCNc1ccnc2cc(Cl)ccc12)Cc1c[nH]c2ccccc12 [SJ000523007] | 26.2256
62 | O=[N+]([O-])c1ccccc1-c1ccc(CNCCCNc2ccnc3cc(Cl)ccc23)o1 [SJ000523068] | 21.6545
63 | CCCN(CCCNc1c2ccc(Cl)cc2nc2ccc(OC)cc12)Cc1cc(F)cc(F)c1O [SJ000522982] | 2.045
64 | CCCN(CCCNc1ccnc2cc(C(F)(F)F)ccc12)Cc1c(F)cccc1OC [SJ000361262] | 29.228
65 | CCCN(CCCNc1ccnc2cc(C(F)(F)F)ccc12)Cc1cc(OC)ccc1F [SJ000520480] | 11.9552
66 | CCCN(CCCNc1ccnc2cc(C(F)(F)F)ccc12)Cc1nccn1C [SJ000575170] | 7.1241
67 | Clc1ccc(CN(CCCNc2ccnc3cc(Cl)ccc23)Cc2ccccc2)c(Cl)c1 [SJ000361184] | 25.4969
68 | FC(F)(F)c1cc(-c2ccc3c(NCCCNCc4ccco4)ccnc3c2)cc(C(F)(F)F)c1 [SJ000311270] | 59.7059
69 | NC(=O)CC(Nc1c2ccccc2nc2ccccc12)C(=O)O (stereo not shown) [SJ000044383] | 20.1038
70 | CCCN(CCCNc1ccnc2cc(C(F)(F)F)ccc12)Cc1cccc(OC)c1O [SJ000361260] | 15.4935
